Values quoted from earlier work as cited in EP3357492B1, “MULTILAYER TABLET FOR ADMINISTRATION OF MAGNESIUM” (S.I.I.T. S.r.l.-Servizio Internazionale Imballaggi …, priority 2017, dated 2018).

Assays:
[1] = in water

Row | pH (1% in water solution) | Solubility (g/100 g water) [1] | Compound
1 | 7 | – | O.O.O=C1O[C@H]([C@@H](O)CO)C([O-])=C1O.O=C1O[C@H]([C@@H](O)CO)C([O-])=C1O.[Mg+2] [Ascorbate 2 hydrate]
2 | 7 | – | N[C@@H](CC(=O)O)C(=O)[O-].N[C@@H](CC(=O)O)C(=O)[O-].O.O.O.O.[Mg+2] [Aspartate 4 hydrate]
3 | 10 | – | O=C([O-])[O-].[Na+].[Na+] [Carbonate]
4 | 8 | – | O.O.O.O.O.O=P([O-])([O-])[O-].O=P([O-])([O-])[O-].[Mg+2].[Mg+2].[Mg+2] [Phosphate 5 hydrate]
5 | 6 | – | O=C1CC[C@@H](C(=O)[O-])N1.O=C1CC[C@@H](C(=O)[O-])N1.[Mg+2] [Pidolate]
6 | 10 | – | CCC(=O)O [Propionate]
7 | 7 | – | Fumarate
8 | 7 | – | Gluconate
9 | 7 | 4 g/100 g water | Glycerophosphate
10 | 7 | – | Lactate
11 | 6 | 40-50 g/100 g water | Phosphate

Row | Compound | pH (1% in water solution) | Solubility (g/100 g water) [1]
12 | O.O.O.O.O.O.[Cl-].[Cl-].[Mg+2] [Chloride 6 hydrate] | 5 | –
13 | O=C(O)CC(O)(CC(=O)O)C(=O)O [Citrate] | 4 | –
14 | O=C([O-])CC(O)(CC(=O)[O-])C(=O)[O-].O=C([O-])CC(O)(CC(=O)[O-])C(=O)[O-].[Mg+2].[Mg+2].[Mg+2] [Dicitrate] | 9 | –
15 | [Mg+2].[OH-].[OH-] [Hydroxide, Magnesium hydroxide] | 10.5 | –
16 | [O]=[Mg] [Oxide, Magnesium oxide] | 10.5 | <1 g/100 g water
17 | O=C([O-])CC(O)(CC(=O)[O-])C(=O)[O-].[K+].[K+].[K+] [Potassium citrate] | 7.5 | –
